The target of assay [1] is T1, MTHFD1 recombinant human enzyme (Homo sapiens, UniProt P11586).
T1 sequence (P11586 2-291 limits assumed): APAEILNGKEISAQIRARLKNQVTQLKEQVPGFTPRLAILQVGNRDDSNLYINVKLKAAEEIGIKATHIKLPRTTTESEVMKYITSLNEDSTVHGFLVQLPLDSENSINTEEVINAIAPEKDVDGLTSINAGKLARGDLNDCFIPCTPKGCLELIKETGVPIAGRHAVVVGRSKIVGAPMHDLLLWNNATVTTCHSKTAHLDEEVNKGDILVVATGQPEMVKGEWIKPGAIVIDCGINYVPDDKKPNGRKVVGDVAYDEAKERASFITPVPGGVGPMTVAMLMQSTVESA
Kind of assay: MTHFD1 inhibition assay (NAD(P)H-Glo luminescence). The conditions noted are these: MTHFD1 IC50, recombinant human enzyme 200 nM, NADP, band.

For assay [2], the target named is T2, MTHFD2 recombinant human enzyme (Homo sapiens, UniProt P13995).
T2 sequence (P13995 36-350): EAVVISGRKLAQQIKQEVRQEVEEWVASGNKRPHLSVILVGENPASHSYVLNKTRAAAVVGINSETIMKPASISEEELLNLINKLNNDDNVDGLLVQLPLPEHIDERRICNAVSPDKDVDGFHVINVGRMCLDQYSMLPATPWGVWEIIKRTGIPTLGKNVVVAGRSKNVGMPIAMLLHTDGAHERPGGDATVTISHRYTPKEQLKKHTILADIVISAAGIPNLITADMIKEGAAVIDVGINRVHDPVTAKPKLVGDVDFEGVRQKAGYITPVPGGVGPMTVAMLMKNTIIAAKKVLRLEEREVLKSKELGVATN
In words: MTHFD2 inhibition assay (NAD(P)H-Glo luminescence). Conditions: for MTHFD1/MTHFD2 IC50 ratio: selectivity of MTHFD2 inhibition over MTHFD1, band.

The results in this text go back to patent US12662489B2 (Sitryx Therapeutics Limited, priority 2023, dated 2026).

Regarding `COC[C@H]1CN(c2ccc3c4c(c(=O)oc3c2C)CN(C(=O)c2cc(Cl)c(C(=O)NS(=O)(=O)C3(C)CC3)c(N3CC5CC5C3)c2)CC4)CCN1C` (stereo partly drawn) [Example 32, 2-(3-azabicyclo[3.1.0]hexan-3-yl)-6-chloro-4-(8-((R)-3-(methoxymethyl)-4-methylpiperazin-1-yl)-7-methyl-5-oxo-1,3,4,5-tetrahydro-2H-chromeno[3,4-c]pyridine-3-carbonyl)-N-((1-methylcyclopropyl)sulfonyl)benzamide], the IC50 (in general, the midpoint of a concentration-inhibition curve) in assay [1] is 100 to 1000 nM. Further, in assay [2], the IC50 lay in the range of 10 to 100 nM and the “MTHFD1/MTHFD2 IC50 ratio” value is given as “J (>30)”.
For the compound `COC[C@H]1CN(c2ccc3c4c(c(=O)oc3c2C)CN(C(=O)c2cc(Cl)c(C(=O)NS(=O)(=O)N(C)C)c(N3CC5CC5C3)c2)CC4)CCN1C` (stereo partly drawn) [Example 33, 2-(3-azabicyclo[3.1.0]hexan-3-yl)-6-chloro-N-(N,N-dimethylsulfamoyl)-4-(8-((R)-3-(methoxymethyl)-4-methylpiperazin-1-yl)-7-methyl-5-oxo-1,3,4,5-tetrahydro-2H-chromeno[3,4-c]pyridine-3-carbonyl)benzamide], the IC50 in assay [1] fell in the range of 100 to 1000 nM; in assay [2], 10 to 100 nM. In addition, in assay [2], the “MTHFD1/MTHFD2 IC50 ratio” value is reported as “H (>9.0 to 30)”.
For `COC[C@H]1CN(c2cc(C)c3c4c(c(=O)oc3c2C)CN(C(=O)c2cc(Cl)c(C(=O)NS(=O)(=O)N(C)C)c(N3CC5CC5C3)c2)CC4)CCN1C` (stereo partly drawn) [Example 34, 2-(3-azabicyclo[3.1.0]hexan-3-yl)-6-chloro-N-(N,N-dimethylsulfamoyl)-4-(8-((R)-3-(methoxymethyl)-4-methylpiperazin-1-yl)-7,10-dimethyl-5-oxo-1,3,4,5-tetrahydro-2H-chromeno[3,4-c]pyridine-3-carbonyl)benzamide] the same measures were 100 to 1000 nM, 1 to 10 nM and “J (>30)”.
In the same order, the values of `COC[C@H]1CN(c2cc(C)c3c4c(c(=O)oc3c2C)CN(C(=O)c2ccc(C(=O)NS(=O)(=O)N3CCCC3)c(O[C@@H]3C[C@@H]5C[C@@H]5C3)c2F)CC4)CCN1C` [Example 35, 2-(((1R,3r,5S)-bicyclo[3.1.0]hexan-3-yl)oxy)-3-fluoro-4-(8-((R)-3-(methoxymethyl)-4-methylpiperazin-1-yl)-7,10-dimethyl-5-oxo-1,3,4,5-tetrahydro-2H-chromeno[3,4-c]pyridine-3-carbonyl)-N-(pyrrolidin-1-ylsulfonyl)benzamide] are 1 to 10 nM, 1 to 10 nM and “F (<3)”.
Take `COC[C@H]1CN(c2cc(C)c3c4c(c(=O)oc3c2C)CN(C(=O)c2ccc(C(=O)NS(=O)(=O)N(C)C(C)C)c(O[C@@H]3C[C@@H]5C[C@@H]5C3)c2F)CC4)CCN1C` [Example 36, 2-(((1R,3r,5S)-bicyclo[3.1.0]hexan-3-yl)oxy)-3-fluoro-N-(N-isopropyl-N-methylsulfamoyl)-4-(8-((R)-3-(methoxymethyl)-4-methylpiperazin-1-yl)-7,10-dimethyl-5-oxo-1,3,4,5-tetrahydro-2H-chromeno[3,4-c]pyridine-3-carbonyl)benzamide]: the IC50 in assay [1] lay in the range of 1 to 10 nM. For the same compound, in assay [2], the IC50 lay in the range of 1 to 10 nM and the “MTHFD1/MTHFD2 IC50 ratio” value is recorded as “F (<3)”.
Consider `COC[C@H]1CN(c2cc(C)c3c4c(c(=O)oc3c2C)CN(C(=O)c2ccc(C(=O)NS(=O)(=O)C3(C)CC3)c(OC3C[C@@H]5C[C@@H]5C3)c2F)CC4)CCN1C` (stereo partly drawn) [Example 37, 2-(((1R,3r,5S)-bicyclo[3.1.0]hexan-3-yl)oxy)-3-fluoro-4-(8-((R)-3-(methoxymethyl)-4-methylpiperazin-1-yl)-7,10-dimethyl-5-oxo-1,3,4,5-tetrahydro-2H-chromeno[3,4-c]pyridine-3-carbonyl)-N-((1-methylcyclopropyl)sulfonyl)benzamide], for which the IC50 in assay [1] and in assay [2] was 1 to 10 nM each time. For the same compound, the “MTHFD1/MTHFD2 IC50 ratio” value in assay [2] is “F (<3)”.
As for `COC[C@H]1CN(c2cc(C)c3c4c(c(=O)oc3c2C)CN(C(=O)c2ccc(C(=O)NS(=O)(=O)C3(C)CC3)c(N(C)C3CCC3)c2F)CC4)CCN1C` [Example 38, (R)-2-(cyclobutyl(methyl)amino)-3-fluoro-4-(8-(3-(methoxymethyl)-4-methylpiperazin-1-yl)-7,10-dimethyl-5-oxo-1,3,4,5-tetrahydro-2H-chromeno[3,4-c]pyridine-3-carbonyl)-N-((1-methylcyclopropyl)sulfonyl)benzamide], the IC50 in assay [1] was 10 to 100 nM. In addition, in assay [2], the IC50 fell in the range of 1 to 10 nM and the “MTHFD1/MTHFD2 IC50 ratio” value is recorded as “G (^ 3 to 9.0)”.
With `COC[C@H]1CN(c2cc(C)c3c4c(c(=O)oc3c2C)CN(C(=O)c2ccc(C(=O)NS(=O)(=O)N(C)C)c(N(C)C3CCC3)c2F)CC4)CCN1C` [Example 39, (R)-2-(cyclobutyl(methyl)amino)-N-(N,N-dimethylsulfamoyl)-3-fluoro-4-(8-(3-(methoxymethyl)-4-methylpiperazin-1-yl)-7,10-dimethyl-5-oxo-1,3,4,5-tetrahydro-2H-chromeno[3,4-c]pyridine-3-carbonyl)benzamide], the IC50 in assay [1] was 10 to 100 nM. For the same compound, in assay [2], the IC50 lay within 1 to 10 nM and the “MTHFD1/MTHFD2 IC50 ratio” value is “G (^ 3 to 9.0)”.
In the same order, the values of `COC[C@H]1CN(c2ccc3c4c(c(=O)oc3c2C)CN(C(=O)c2cc(Cl)c(C(=O)NS(=O)(=O)C3(C)CC3)c(N3C5CCC3CC5)c2)CC4)CCN1C` [Example 40, (R)-2-(7-azabicyclo[2.2.1]heptan-7-yl)-6-chloro-4-(8-(3-(methoxymethyl)-4-methylpiperazin-1-yl)-7-methyl-5-oxo-1,3,4,5-tetrahydro-2H-chromeno[3,4-c]pyridine-3-carbonyl)-N-((1-methylcyclopropyl)sulfonyl)benzamide] are 10 to 100 nM, 1 to 10 nM and “H (>9.0 to 30)”.
As to `COC[C@H]1CN(c2cc(C)c3c4c(c(=O)oc3c2C)CN(C(=O)c2ccc(C(=O)NS(=O)(=O)C3(C)CC3)c(OC3CCC3)c2F)CC4)CCN1C` [Example 41, (R)-2-cyclobutoxy-3-fluoro-4-(8-(3-(methoxymethyl)-4-methylpiperazin-1-yl)-7,10-dimethyl-5-oxo-1,3,4,5-tetrahydro-2H-chromeno[3,4-c]pyridine-3-carbonyl)-N-((1-methylcyclopropyl)sulfonyl)benzamide], the IC50 in assay [1] and in assay [2] was 1 to 10 nM throughout. Besides, in assay [2], the “MTHFD1/MTHFD2 IC50 ratio” value was “G (^ 3 to 9.0)”.
Turning to `COC[C@H]1CN(c2ccc3c4c(c(=O)oc3c2C)CN(C(=O)c2ccc(C(=O)NS(=O)(=O)C3(C)CC3)c(OC3CCC3)c2F)CC4)CCN1C` [Example 42, (R)-2-cyclobutoxy-3-fluoro-4-(8-(3-(methoxymethyl)-4-methylpiperazin-1-yl)-7-methyl-5-oxo-1,3,4,5-tetrahydro-2H-chromeno[3,4-c]pyridine-3-carbonyl)-N-((1-methylcyclopropyl)sulfonyl)benzamide], the IC50 in assay [1] and in assay [2] was 1 to 10 nM throughout. Also, in assay [2], the “MTHFD1/MTHFD2 IC50 ratio” value was “G (^ 3 to 9.0)”.
Turning to `COC[C@H]1CN(c2cc(C)c3c4c(c(=O)oc3c2C)CN(C(=O)c2ccc(C(=O)NS(=O)(=O)N(C)C)c(OC3CCCC3)c2F)CC4)CCN1C` [Example 43, (R)-2-(cyclopentyloxy)-N-(N,N-dimethylsulfamoyl)-3-fluoro-4-(8-(3-(methoxymethyl)-4-methylpiperazin-1-yl)-7,10-dimethyl-5-oxo-1,3,4,5-tetrahydro-2H-chromeno[3,4-c]pyridine-3-carbonyl)benzamide], the IC50 in assay [1] was 1 to 10 nM. In assay [2], the IC50 was in the range of 1 to 10 nM and the “MTHFD1/MTHFD2 IC50 ratio” value is reported as “F (<3)”.
With `COC[C@H]1CN(c2ccc3c4c(c(=O)oc3c2Cl)CN(C(=O)c2ccc(C(=O)NS(=O)(=O)N(C)C)c(OC3CCCC3)c2F)CC4)CCN1C` [Example 44, (R)-4-(7-chloro-8-(3-(methoxymethyl)-4-methylpiperazin-1-yl)-5-oxo-1,3,4,5-tetrahydro-2H-chromeno[3,4-c]pyridine-3-carbonyl)-2-(cyclopentyloxy)-N-(N,N-dimethylsulfamoyl)-3-fluorobenzamide], the IC50 in assay [1] lay within 1 to 10 nM. In assay [2], the IC50 is 1 to 10 nM and the “MTHFD1/MTHFD2 IC50 ratio” value is “F (<3)”.
Turning to `COC[C@H]1CN(c2cc(C)c3c4c(c(=O)oc3c2C)CN(C(=O)c2ccc(C(=O)NS(=O)(=O)C3(C)CC3)c(N3CC5CC5C3)c2)CC4)CCN1C` (stereo partly drawn) [Example 46, 2-(3-azabicyclo[3.1.0]hexan-3-yl)-4-(8-((R)-3-(methoxymethyl)-4-methylpiperazin-1-yl)-7,10-dimethyl-5-oxo-1,3,4,5-tetrahydro-2H-chromeno[3,4-c]pyridine-3-carbonyl)-N-((1-methylcyclopropyl)sulfonyl)benzamide], the figures for the half-maximal inhibitory concentration (IC50) in assay [1] and in assay [2] were 10 to 100 nM and 1 to 10 nM, respectively. Further, the “MTHFD1/MTHFD2 IC50 ratio” value in assay [2] is listed as “H (>9.0 to 30)”.
